# Calls of active or inactive are those of the source.
# Assays:
# [1] = target: Mucolipin-3 (Homo sapiens, UniProt Q8TDD5); experiment: Dose response cell-based high-throughput screening assay for agonists of the transient receptor potential channel ML3 (TRPML3). [Related pubchem assays: 1526, 1424, 1448 ]; format: functional
# [2] = target: Ion channel NompC (Danio rerio, UniProt Q7T1G6); experiment: Fluorescence counterscreen assay for TRPML3 agonists: dose response cell-based high-throughput screening assay to identify agonists of the transient receptor potential channel N1 (TRPN1). [Related pubchem assays: 1526, 1424, 1448 ]; format: functional
# [3] = target: 5-hydroxytryptamine receptor 1E (Homo sapiens, UniProt P28566); experiment: Counterscreen assay for S1P3 antagonists: Dose response cell-based high throughput screening assay to identify antagonists of the 5-Hydroxytryptamine Receptor Subtype 1E (5HT1E). [Related pubchem assays: 1429, 485 ]; format: functional
# [4] = growth suppression of PTEN-null colon cells, dose response, cell-based, HCT116 PTEN knockout (AID 1047); format: functional;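 further: HCT116 colon tumor cells with PTEN knocked out; cells exposed to compound for 60 hours before readout; potency for loss of cell viability measured by luminescence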
# [5] = target: Sphingosine 1-phosphate receptor 3 (Homo sapiens, UniProt Q99500); experiment: Dose response cell-based high throughput screening assay for antagonists of the Sphingosine 1-Phosphate Receptor 3 (S1P3). [Related pubchem assays: 1429, 485 ]; format: functional
# [6] = growth suppression of beta-catenin-knockout colon cells, dose response, cell-based, HCT116, human colon tumor (AID 1045); format: functional;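 further: HCT116 colon tumor cells with beta catenin knocked out; cells exposed to compound for 60 hours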
# [7] = target: T1, Leucine aminopeptidase (Plasmodium falciparum 3D7, UniProt Q8IL11); experiment: P. falciparum M17LAP inhibitors, primary screen, biochemical, fluorogenic H-Leu-NHMec substrate, 1536-well (AID 1619); format: functional
# T1 sequence (Q8IL11 whole entry): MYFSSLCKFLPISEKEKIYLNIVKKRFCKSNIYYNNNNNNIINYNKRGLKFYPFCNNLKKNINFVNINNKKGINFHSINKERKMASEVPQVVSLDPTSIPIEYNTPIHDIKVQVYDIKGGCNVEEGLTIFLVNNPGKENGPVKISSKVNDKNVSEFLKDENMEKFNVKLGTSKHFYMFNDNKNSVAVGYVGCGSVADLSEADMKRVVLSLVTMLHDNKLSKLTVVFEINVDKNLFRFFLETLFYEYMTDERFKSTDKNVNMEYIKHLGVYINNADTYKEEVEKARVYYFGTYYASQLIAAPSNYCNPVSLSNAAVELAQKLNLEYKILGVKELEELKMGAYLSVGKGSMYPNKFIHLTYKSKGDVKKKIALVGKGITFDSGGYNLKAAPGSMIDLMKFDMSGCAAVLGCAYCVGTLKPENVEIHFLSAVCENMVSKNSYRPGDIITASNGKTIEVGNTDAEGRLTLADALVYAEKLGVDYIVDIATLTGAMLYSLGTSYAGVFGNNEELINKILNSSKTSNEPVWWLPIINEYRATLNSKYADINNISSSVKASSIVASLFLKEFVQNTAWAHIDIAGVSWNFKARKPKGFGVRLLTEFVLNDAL
# [8] = enhancers of respiration in Yfh1-depleted yeast, dose response, Friedreich's ataxia, plus single-dose screen (AID 1465); format: functional;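 further: yeast depleted of Yfh1p frataxin homolog grown on glycerol needing respiration; WST-1 tetrazolium dye reduction as measure of cellular dehydrogenase metabolic activity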
# [9] = target: T2, E3 ubiquitin-protein ligase XIAP (Homo sapiens, UniProt P98170); experiment: Counter Screen using XIAP-Bir3 for Chemical Antagonists of Bir1/2 domains of IAP-family anti-apoptotic proteins. [Related pubchem assays (depositor defined):AID1018, AID1449, AID1514, AID1638, AID1749, AID1750, AID488957, AID488963]
# [10] = target: T2, E3 ubiquitin-protein ligase XIAP; experiment: XIAP antagonists, biochemical, IAP family, fluorescence polarization (AID 1018); format: functional
# [11] = target: T3, Streptokinase A (Streptococcus pyogenes serotype M1, UniProt P10520); experiment: Absorbance Microorganism-Based Dose Response Follow up to Identify Inhibitors of Streptokinase Expression. [Related pubchem assays: 1677 (Project Summary), 1915, 1914, 1902 (Retest at Dose), 1900 (Counter Screen), 1662 (Primary HTS)]; format: functional, Streptococcus pyogenes M1 GAS
# T3 sequence (P10520 whole entry): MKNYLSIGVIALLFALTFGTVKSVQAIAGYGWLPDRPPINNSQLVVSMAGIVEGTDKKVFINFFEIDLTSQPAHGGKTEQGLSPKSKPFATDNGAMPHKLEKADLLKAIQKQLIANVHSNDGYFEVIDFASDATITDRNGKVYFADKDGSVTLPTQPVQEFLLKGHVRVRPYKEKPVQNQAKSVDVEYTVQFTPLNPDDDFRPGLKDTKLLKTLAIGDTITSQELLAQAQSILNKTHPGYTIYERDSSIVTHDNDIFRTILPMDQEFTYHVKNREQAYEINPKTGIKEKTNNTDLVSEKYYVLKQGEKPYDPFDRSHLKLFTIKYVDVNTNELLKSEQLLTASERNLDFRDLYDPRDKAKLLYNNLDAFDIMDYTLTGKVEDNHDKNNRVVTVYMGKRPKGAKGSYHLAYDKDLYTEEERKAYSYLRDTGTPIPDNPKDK
# [12] = system: Streptococcus; experiment: Streptococcus pyogenes growth inhibition counter-screen, dose response, counter-screen for streptokinase expression inhibitor project, luminescence, BacTiter-Glo, strain UMAA2166 (AID 2477); format: functional, organism-based
# [13] = HEp-2 cell cytotoxicity, dose response, cytotoxicity control for RSV inhibitor project, HTS (AID 2410); format: functional; conditions: human respiratory syncytial virus
# [14] = system: HeLa; experiment: Cytotoxicity counterscreen assay for transcriptional activators of heat shock protein 70 (Hsp70). [Related pubchem assays: 1203, 1252 ]; format: functional; conditions: Homo sapiens;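 further: cells exposed to compound for 16 hours before readout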
# [15] = target: T4, Voltage-gated N-type calcium channel alpha-1B subunit/Amyloid beta A4 precursor protein-binding family A member 1 (Homo sapiens, UniProt Q00975+Q02410); format: protein assay
# [16] = target: T4, Voltage-gated N-type calcium channel alpha-1B subunit/Amyloid beta A4 precursor protein-binding family A member 1; format: protein assay; remark: listed apart in the source
# [17] = inhibitors of intracellular T. cruzi replication, confirmation, NIH3T3 host cells, beta-gal luminescence (AID 2044); format: functional, cell-based;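 further: intracellular parasites grown in NIH/3T3 mouse fibroblasts as host cells; luminescent beta-galactosidase reporter signal from transgenic T. cruzi replicating inside host cells; inhibitors lower the luminescence signal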
# [18] = cytotoxicity toward NIH3T3 fibroblasts, dose response, counter-screen, cell-based, ATP luminescence, mouse fibroblasts (AID 2010); format: functional;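 further: cells exposed to compound for about 90 hours before reading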
# [19] = target: Heat shock protein HSP 90-alpha (Homo sapiens, UniProt P07900); format: functional, organism-based
# [20] = system: INS1; experiment: beta cell apoptosis inhibitors, cytokine rescue, dose response, luminescence, retest (AID 449756); format: functional, cell-based; conditions: Rattus norvegicus;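 further: cell death triggered by IL-1 beta plus TNF-alpha plus IFN-gamma mixture; protective hits raise ATP signal compared with cytokine alone wells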
# [21] = target: NADPH oxidase 1 (Homo sapiens, UniProt Q9Y5S8); format: functional, cell-based;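 further: Cell-based assay with luminescence read-out, IC50 derived from inhibitor dose-response curves; intracellular ROS from endogenous NOX1 in intact HT29 colon cancer cells; potency of inhibitors that lower the ROS luminescence signal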
# [22] = target: Sphingosine 1-phosphate receptor 2 (Homo sapiens, UniProt O95136); experiment: Dose Response Cell Based Assay for Agonists of the S1P2 Receptor of Purchased Analogues. [Related pubchem assays: 729, 843, 854, 736 ]; format: functional
# [23] = target: T5, Aspartyl aminopeptidase (Plasmodium falciparum 3D7, UniProt Q8I2J3); experiment: Counterscreen for inhibitors of M1 and M17 aminopeptidases: QFRET-based biochemical high throughput dose response assay for inhibitors of the Plasmodium falciparum M18 Aspartyl Aminopeptidase (PFM18AAP). [Related PubChem assays: 1619 (Screening assay (M17LAP inhibitors).), 1445 (Screening assay (M1AAP inhibitors).)]
# T5 sequence (Q8I2J3 whole entry): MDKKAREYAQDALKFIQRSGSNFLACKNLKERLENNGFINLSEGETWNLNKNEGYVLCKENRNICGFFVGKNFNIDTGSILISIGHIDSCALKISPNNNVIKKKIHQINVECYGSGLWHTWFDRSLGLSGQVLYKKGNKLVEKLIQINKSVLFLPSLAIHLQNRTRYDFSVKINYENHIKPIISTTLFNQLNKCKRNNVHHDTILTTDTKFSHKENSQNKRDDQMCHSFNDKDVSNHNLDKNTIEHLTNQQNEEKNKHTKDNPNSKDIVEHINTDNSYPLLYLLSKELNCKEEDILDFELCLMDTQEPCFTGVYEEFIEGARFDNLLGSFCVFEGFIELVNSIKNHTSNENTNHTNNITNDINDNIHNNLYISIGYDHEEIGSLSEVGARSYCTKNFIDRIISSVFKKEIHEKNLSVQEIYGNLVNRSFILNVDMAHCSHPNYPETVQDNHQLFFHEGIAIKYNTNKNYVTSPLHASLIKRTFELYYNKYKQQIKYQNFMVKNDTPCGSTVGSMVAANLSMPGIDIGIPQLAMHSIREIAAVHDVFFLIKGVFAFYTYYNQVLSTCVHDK
# [24] = target: T6, Aminopeptidase N (Plasmodium falciparum FcB1/Columbia, UniProt O96935); experiment: P. falciparum M1AAP inhibitors, biochemical, fluorogenic H-Leu-NHMec substrate, 1536-well (AID 1445); parameters: species or system Plasmodium falciparum 3D7, 3D7
# T6 sequence (O96935 whole entry): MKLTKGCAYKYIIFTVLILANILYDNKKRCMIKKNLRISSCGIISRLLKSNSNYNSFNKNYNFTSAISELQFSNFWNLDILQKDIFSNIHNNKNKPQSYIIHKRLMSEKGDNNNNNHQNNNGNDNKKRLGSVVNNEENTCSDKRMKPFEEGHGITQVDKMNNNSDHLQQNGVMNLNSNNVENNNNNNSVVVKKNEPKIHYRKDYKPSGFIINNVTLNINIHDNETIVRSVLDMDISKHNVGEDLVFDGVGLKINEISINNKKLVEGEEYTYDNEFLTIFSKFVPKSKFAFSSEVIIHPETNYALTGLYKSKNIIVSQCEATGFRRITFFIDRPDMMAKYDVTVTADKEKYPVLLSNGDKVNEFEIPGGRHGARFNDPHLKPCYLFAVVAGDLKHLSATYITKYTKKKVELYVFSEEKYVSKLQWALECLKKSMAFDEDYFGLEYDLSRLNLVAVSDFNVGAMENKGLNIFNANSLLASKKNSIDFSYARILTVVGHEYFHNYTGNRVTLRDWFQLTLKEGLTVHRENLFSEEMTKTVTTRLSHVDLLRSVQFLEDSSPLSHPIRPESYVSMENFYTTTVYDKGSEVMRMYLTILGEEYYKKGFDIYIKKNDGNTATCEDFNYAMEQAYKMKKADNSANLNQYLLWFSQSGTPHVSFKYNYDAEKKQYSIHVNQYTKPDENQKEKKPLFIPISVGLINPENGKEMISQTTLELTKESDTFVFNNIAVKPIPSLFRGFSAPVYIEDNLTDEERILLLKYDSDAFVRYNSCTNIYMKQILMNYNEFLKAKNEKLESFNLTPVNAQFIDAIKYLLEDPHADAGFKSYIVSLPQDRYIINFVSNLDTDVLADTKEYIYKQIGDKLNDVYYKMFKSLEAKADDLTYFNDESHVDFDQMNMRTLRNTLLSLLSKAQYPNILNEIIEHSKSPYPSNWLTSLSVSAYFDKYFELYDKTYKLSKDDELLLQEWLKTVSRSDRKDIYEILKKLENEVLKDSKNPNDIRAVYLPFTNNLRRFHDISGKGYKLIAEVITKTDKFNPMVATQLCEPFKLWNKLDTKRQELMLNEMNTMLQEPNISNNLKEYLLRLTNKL
# [25] = target: Procathepsin L (Homo sapiens, UniProt P07711); experiment: cathepsin L inhibitors, dose response, counter-screen for M1/M17 aminopeptidase inhibitor project, biochemical, QFRET, 1536-well (AID 2214)
# [26] = target: T7, Mannose-6-phosphate isomerase (Homo sapiens, UniProt P34949); experiment: inhibitors of human PMI, primary screen, biochemical, fluorescence intensity, coupled assay (AID 1209)
# T7 sequence (P34949 whole entry): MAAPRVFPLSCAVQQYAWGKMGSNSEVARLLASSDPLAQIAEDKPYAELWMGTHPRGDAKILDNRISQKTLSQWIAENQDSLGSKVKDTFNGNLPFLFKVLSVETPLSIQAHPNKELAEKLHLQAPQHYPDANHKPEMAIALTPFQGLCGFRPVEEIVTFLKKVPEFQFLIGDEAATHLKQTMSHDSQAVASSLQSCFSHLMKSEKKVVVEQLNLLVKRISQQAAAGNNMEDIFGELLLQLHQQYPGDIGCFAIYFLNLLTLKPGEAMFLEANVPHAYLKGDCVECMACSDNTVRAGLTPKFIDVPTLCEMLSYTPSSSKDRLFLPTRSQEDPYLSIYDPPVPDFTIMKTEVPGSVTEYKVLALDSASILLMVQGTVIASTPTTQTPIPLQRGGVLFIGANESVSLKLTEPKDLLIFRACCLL
# [27] = target: T7, Mannose-6-phosphate isomerase; experiment: human PMI inhibitors, high substrate, primary screen, biochemical, fluorescence intensity, high mannose 6-phosphate (AID 1220)
# T4 sequence (Q00975 whole entry): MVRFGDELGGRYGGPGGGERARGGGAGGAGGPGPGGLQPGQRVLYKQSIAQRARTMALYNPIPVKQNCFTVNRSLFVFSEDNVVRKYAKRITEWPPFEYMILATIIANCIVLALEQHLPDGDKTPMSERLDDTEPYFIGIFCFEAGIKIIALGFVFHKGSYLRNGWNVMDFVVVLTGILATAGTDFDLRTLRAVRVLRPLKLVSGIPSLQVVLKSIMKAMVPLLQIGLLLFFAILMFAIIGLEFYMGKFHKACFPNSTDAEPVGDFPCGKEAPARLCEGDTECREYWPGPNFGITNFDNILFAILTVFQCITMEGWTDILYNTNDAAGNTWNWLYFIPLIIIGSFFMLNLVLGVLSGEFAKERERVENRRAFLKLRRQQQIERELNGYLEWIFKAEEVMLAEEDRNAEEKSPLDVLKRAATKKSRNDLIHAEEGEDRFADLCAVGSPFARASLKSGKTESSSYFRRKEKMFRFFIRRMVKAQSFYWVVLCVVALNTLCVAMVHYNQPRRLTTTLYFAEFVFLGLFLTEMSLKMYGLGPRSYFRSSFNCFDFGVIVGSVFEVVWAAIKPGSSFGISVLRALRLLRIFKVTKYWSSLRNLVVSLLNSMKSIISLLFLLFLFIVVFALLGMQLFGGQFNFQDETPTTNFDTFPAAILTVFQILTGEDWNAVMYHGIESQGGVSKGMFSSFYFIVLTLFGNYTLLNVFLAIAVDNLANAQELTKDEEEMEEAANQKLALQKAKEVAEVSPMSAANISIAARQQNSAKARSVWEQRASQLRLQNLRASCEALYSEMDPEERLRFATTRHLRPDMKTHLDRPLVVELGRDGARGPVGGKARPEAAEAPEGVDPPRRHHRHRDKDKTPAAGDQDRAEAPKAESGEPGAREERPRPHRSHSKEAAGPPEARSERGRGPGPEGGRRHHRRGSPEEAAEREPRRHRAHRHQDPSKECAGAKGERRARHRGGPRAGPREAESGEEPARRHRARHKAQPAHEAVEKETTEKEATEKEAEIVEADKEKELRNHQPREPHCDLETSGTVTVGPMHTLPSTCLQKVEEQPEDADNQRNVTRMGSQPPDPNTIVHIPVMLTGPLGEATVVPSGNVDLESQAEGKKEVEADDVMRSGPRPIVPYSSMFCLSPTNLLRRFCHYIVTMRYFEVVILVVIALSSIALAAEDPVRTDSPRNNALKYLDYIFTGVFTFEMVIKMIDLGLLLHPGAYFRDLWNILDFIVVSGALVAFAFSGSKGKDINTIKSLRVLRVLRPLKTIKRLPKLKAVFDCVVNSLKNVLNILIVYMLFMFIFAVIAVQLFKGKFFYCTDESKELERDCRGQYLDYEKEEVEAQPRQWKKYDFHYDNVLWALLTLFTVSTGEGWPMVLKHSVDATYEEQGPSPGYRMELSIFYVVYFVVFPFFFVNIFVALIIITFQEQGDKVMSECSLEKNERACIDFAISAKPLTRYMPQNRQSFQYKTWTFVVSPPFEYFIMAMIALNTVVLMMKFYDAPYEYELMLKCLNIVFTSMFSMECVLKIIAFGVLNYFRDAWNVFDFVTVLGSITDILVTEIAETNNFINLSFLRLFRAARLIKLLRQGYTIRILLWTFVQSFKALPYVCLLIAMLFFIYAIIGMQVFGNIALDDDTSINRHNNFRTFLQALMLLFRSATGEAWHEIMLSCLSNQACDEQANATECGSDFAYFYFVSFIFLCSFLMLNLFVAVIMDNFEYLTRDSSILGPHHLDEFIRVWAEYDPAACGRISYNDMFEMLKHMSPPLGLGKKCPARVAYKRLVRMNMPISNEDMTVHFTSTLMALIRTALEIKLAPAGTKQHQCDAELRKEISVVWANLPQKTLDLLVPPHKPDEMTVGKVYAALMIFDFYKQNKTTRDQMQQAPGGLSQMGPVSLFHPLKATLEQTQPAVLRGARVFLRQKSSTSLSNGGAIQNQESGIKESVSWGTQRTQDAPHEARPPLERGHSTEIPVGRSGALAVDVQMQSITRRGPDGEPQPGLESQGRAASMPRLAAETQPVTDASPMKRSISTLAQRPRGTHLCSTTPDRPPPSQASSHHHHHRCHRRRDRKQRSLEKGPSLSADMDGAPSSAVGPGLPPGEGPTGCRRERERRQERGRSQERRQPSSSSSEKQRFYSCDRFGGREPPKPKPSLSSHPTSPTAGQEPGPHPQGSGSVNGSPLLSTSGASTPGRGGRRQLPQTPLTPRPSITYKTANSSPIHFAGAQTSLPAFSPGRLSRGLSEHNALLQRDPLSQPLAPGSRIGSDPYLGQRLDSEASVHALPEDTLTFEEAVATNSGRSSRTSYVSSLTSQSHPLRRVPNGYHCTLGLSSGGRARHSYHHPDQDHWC
# T4 sequence (Q02410 whole entry): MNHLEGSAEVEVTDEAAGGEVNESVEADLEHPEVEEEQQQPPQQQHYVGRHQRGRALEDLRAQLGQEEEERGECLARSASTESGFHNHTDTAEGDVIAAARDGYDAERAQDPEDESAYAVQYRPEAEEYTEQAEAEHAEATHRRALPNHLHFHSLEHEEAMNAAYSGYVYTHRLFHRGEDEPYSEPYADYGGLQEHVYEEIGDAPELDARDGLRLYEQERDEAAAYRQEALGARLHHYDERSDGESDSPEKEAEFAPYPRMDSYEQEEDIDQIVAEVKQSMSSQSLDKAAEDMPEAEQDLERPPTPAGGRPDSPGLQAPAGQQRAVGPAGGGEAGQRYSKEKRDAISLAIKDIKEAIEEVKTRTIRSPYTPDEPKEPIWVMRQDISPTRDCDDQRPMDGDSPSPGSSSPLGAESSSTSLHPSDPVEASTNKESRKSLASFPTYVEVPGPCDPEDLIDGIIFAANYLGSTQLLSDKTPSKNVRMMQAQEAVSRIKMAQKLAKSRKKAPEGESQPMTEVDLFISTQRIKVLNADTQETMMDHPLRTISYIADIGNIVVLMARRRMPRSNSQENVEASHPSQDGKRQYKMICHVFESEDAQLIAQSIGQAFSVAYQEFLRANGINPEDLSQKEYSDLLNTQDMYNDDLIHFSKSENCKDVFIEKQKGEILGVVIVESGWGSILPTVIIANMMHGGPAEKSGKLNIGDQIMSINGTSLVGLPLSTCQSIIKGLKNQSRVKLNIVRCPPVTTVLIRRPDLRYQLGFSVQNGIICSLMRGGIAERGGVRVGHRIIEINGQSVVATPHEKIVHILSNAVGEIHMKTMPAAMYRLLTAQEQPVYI
# T2 sequence (P98170 whole entry): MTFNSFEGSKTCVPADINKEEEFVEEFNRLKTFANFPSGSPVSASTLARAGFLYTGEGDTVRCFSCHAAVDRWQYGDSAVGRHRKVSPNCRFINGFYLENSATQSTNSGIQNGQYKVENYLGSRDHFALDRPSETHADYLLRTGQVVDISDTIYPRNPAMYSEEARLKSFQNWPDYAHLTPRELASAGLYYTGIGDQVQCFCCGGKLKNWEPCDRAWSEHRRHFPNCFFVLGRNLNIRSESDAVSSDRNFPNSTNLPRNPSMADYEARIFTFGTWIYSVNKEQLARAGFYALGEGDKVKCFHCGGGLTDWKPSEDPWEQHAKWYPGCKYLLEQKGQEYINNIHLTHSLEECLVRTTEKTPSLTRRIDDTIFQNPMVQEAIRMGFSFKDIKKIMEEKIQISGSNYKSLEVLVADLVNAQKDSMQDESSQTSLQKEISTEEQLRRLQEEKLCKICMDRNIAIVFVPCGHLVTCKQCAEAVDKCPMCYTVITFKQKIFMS
# Sequence of Mucolipin-3 (Q8TDD5 whole entry): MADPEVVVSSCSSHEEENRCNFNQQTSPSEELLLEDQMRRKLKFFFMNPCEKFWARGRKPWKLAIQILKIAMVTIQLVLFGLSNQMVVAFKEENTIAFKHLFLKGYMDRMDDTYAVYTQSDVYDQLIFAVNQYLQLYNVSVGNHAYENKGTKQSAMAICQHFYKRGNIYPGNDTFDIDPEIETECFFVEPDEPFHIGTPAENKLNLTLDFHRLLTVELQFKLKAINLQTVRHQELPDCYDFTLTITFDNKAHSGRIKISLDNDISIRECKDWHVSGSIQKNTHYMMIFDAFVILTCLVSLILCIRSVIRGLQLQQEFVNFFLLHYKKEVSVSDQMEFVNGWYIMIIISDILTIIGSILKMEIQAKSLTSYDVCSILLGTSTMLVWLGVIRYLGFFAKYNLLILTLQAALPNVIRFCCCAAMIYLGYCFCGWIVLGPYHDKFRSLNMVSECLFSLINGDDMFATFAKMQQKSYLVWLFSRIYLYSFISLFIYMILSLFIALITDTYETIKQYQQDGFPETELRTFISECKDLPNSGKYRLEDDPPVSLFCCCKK
# Sequence of NADPH oxidase 1 (Q9Y5S8 whole entry): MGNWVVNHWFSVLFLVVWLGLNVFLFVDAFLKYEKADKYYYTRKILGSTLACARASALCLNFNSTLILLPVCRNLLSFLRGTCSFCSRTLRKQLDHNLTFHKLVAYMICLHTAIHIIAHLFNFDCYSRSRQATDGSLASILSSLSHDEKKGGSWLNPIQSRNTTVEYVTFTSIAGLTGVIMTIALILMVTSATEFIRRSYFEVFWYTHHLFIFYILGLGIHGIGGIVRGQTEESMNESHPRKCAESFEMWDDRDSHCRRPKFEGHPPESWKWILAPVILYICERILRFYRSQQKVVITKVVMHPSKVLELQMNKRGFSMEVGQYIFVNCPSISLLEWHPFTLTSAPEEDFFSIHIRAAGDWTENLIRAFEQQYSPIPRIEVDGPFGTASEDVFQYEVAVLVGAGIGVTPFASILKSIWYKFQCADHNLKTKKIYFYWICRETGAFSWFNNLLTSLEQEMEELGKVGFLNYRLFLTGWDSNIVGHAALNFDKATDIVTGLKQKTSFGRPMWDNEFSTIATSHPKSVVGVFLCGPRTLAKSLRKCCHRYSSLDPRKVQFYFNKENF
compound,measurement,setting,value
Cc1ccccc1S(=O)(=O)c1c(C)cc(C)n(C(C)C)c1=O,EC50,[1],2.44 µM (active)
same,EC50,[2],> 29.9 µM (not active)
O=C(OC(C(=O)Nc1cccc(C(F)(F)F)c1)c1ccccc1)C1CCCCC1 (centres undefined),IC50,[3],11.2 µM (not active)
same,EC50,[4],118 µM (active)
same,IC50,[5],7.69 µM (active)
same,EC50,[6],518 µM (active)
O=C(O)CN1C(=O)/C(=C\c2cn(CC(=O)N3CCOCC3)c3ccccc23)SC1=S,IC50,[7],13.1 µM (active)
same,EC50,[8],> 100 µM (active)
O=C(CCN1C(=O)C2C3C=CC(C3)C2C1=O)N1CCN(c2ccccc2F)CC1 (centres undefined),IC50,[9],> 100 µM (inactive)
same,IC50,[10],> 100 µM (not active)
CC(C)Oc1nc(-c2ccc(Cl)cc2)nc2ccccc12,EC50,[11],6.9 µM (active)
same,EC50,[12],51.2 µM (active)
N#C/C(=C/c1ccc(N2CCCCCC2)o1)c1ccc(Cl)cc1,CC50,[13],16.9 µM (active)
same,CC50,[14],> 99 µM (not active)
same,IC50,[15],4.77 µM (active)
same,IC50,[16],> 50 µM (inactive)
same,EC50,[17],1.81 µM (active)
same,EC50,[18],> 60 µM (inconclusive)
same,AC50,[19],20.4 µM (active)
same,AC50,[20],8.91 µM (active)
Clc1ccc2c(c1)Nc1ccccc1S2,IC50,[21],0.254 µM (active)
Cc1cc(C(=O)O)c(C)n1Cc1ccccc1,EC50,[22],> 30 µM (not active)
O=C(NCc1cccc(F)c1)C1CCN(S(=O)(=O)Cc2ccccc2)CC1,IC50,[23],> 73.5 µM (not active)
same,IC50,[24],1.71 µM (active)
same,IC50,[25],> 59.6 µM (not active)
CCN1C(=O)c2cccc3cccc1c23,IC50,[15],20.5 µM (active)
same,IC50,[26],32 µM (active)
same,IC50,[16],> 50 µM (inactive)
same,IC50,[27],33.9 µM (active)

# Reference: ChEMBL document CHEMBL1201862, “PubChem BioAssay data set” (2004)
